Measurements published in paper PMC9011347, “Small-Molecule Inhibitors Targeting Lipolysis in Human Adipocytes” (Journal of the American Chemical Society, 2022).

System: HepG2 cells
Assay: Untargeted lipidomic analysis (UHPLC-MS, OPLS-DA)
Format: cell-based, human
Conditions: 40 μM, 3 h, versus DMSO
Procedure: Figure 2 Development and characterization of the human ATGL inhibitor NG-497. (a) Structure and IC50 values of human ATGL inhibitors. (b) Dose-dependent inhibition of human ATGL by respective inhibitors. (c) ATGL activity was determined at the indicated substrate concentrations in the absence and presence of NG-497 (0.5 μM). Ki was determined by nonlinear regression analysis using GraphPad Prism. Lineweaver–Burk analysis of ATGL inhibition is shown in the inset. (d) Toxicity of NG-497 in HepG2 cells was determined after 24 h incubation at indicated concentrations. Cisplatin and DMSO were used as positive and negative controls, respectively. Cytotoxicity was determined using the Roche LDH Kit and calculated as relative LDH release compared to fully lysed cells. (e) Stability of NG-497 was analyzed via ultrahigh-performance liquid chromatography–mass spectrometry (UHPLC-MS) after incubation in human serum for 0 or 3 h at 37 °C. Atglistatin and a chemically related unstable compound were used as controls. […] NG-497 concentrations/well were determined at the indicated time points using UHPLC-MS. […] Statistical significance was determined via t test (*p < 0.05; **p < 0.01; ***p < 0.001) or ANOVA followed by Bonferroni post hoc test (^###p < 0.001). […] The detected 297 lipid species of both groups were analyzed with supervised multivariate analysis OPLS-DA and are shown as a loading plot. […]

CCOc1ccc(-c2cc(OC)cc(C(=O)OC(C)C)n2)cc1 [NG-497]
lipidomic changes (OPLS-DA top 25 contributing lipid species): 20 of the top 25 hits were due to an increase of TAG species, while three DAG species were decreased
